Assays:
Format in all cases: in vivo
[1] = test system: German cockroaches (Blattella germanica); assay: Test Example 6: control test against German cockroaches, spray in chamber; details: adult German cockroaches; 1.5 mL sprayed; concentration [%]: isocycloseram 0.05, imiprothrin 0.01, lambda-cyhalothrin 0.0025, alone or mixed; 60 minutes after spraying
Description: (§1) Next, the usefulness of the inventive composition for controlling pests will be indicated by Test Examples. In general, the control effect to be expected when treated with a mixture obtained by mixing given two or three types of active ingredient compounds is determined by the Colby's calculation equation represented by the following [Equation 1] and [Equation 2].
(§2) [formula] • P: moribund and mortal rates (%) when treated with an active ingredient compound X in the concentration of m [ppm] • Q: moribund and mortal rates (%) when treated with an active ingredient compound Y in the concentration of n [ppm] • EA: moribund and mortal rates (%) when treated with an active ingredient compound X in the concentration of m [ppm] and an active ingredient compound Y in the concentration of n [ppm] (hereinafter referred to as expected value A) […]
(§3) Regarding the synergistic effect of three types of the active ingredient compounds, in case where the moribund and mortal rates (%) when actually treated with a mixture obtained by mixing three types of the active ingredient compounds exceed the expected value A calculated by using the moribund and mortal rates (%) when actually treated with a mixture obtained by mixing two types of the active ingredient compounds among three types thereof, and the moribund and mortal rates (%) calculated when actually treated the remaining one type of the active ingredient compound, or the expected value B (%) calculated from the moribund and mortal rates (%) when actually treated with each of three types of the active ingredient compounds alone, it was determined that the synergistic effect exists. […]

[2] = test system: German cockroaches (Blattella germanica); assay: Test Example 9: control test against German cockroaches, spray in chamber; details: adult German cockroaches; 1.5 mL sprayed; concentration [%]: broflanilide 0.02, imiprothrin 0.01, permethrin 0.05, alone or mixed; 420 minutes after spraying
Description: (§4) Next, the usefulness of the inventive composition for controlling pests will be indicated by Test Examples.
(§5) (hereinafter referred to as expected value A)
(§6) (hereinafter referred to as expected value B)
(§7) In a plastic cup (diameter: 12.4 cm, height: 10.2 cm) lined with a filter paper, ten adult German cockroaches (Blattella germanica) (five males and five females each) were released, and the plastic cup was placed in the center of the bottom of a box-shaped chamber (46 cm×46 cm×70 cm in height). From the height of 60 cm, 1.5 mL of each of formulations prepared by dissolving a single agent of any one of broflanilide, imiprothrin and permethrin, or a mixed agent of two or more thereof in a mixture of isopropyl alcohol and Isopar M at a mixing ratio of 1:9 was sprayed under a spray pressure of 0.041 MPa. After a lapse of 420 minutes from spraying, the number of dead and moribund individuals was examined, and moribund and mortal rates (%) were determined by the above equation 3. The test was performed through two replicates. Dead individuals are completely immobile individuals, and moribund individuals are individuals who cannot get up when turned on their backs.

[3] = test system: German cockroaches (Blattella germanica); assay: Test Example 1: control test against German cockroaches, spray in chamber (cup without filter paper); details: adult German cockroaches; 1.5 mL sprayed; concentration [%]: broflanilide 0.01, imiprothrin 0.01, cypermethrin 0.01, alone or mixed; 120 minutes after spraying
Description: as §1, §2
Regarding the synergistic effect of three types of the active ingredient compounds, in case where the moribund and mortal rates (%) when actually treated with a mixture obtained by mixing three types of the active ingredient compounds exceed the expected value A calculated by using the moribund and mortal rates (%) when actually treated with a mixture obtained by mixing two types of the active ingredient compounds among three types thereof, and the moribund and mortal rates (%) calculated when actually treated the remaining one type of the active ingredient compound, or the expected value B (%) calculated from the moribund and mortal rates (%) when actually treated with each of three types of the active ingredient compounds alone, it was determined that the synergistic effect exists.
In a plastic cup (diameter: 12.4 cm, height: 10.2 cm), ten adult German cockroaches (Blattella germanica) (five males and five females each) were released, and the plastic cup was placed in the center of the bottom of a box-shaped chamber (46 cm×46 cm×70 cm in height). […] After a lapse of 120 minutes from spraying, the number of dead and moribund individuals was examined, and moribund and mortal rates (%) were determined by the equation 3 below. […]

[4] = test system: German cockroaches (Blattella germanica); assay: Test Example 3: control test against German cockroaches, spray in chamber; details: adult German cockroaches; 1.5 mL sprayed; concentration [%]: broflanilide 0.02, imiprothrin 0.01, cyfluthrin 0.0016, alone or mixed; 420 minutes after spraying
Description: as §4, §5, §6
as §7, with “cyfluthrin,” for “permethrin,”

[5] = test system: German cockroaches (Blattella germanica); assay: Test Example 5: control test against German cockroaches, spray in chamber; details: adult German cockroaches; 1.5 mL sprayed; concentration [%]: nicofluprole 0.01, imiprothrin 0.01, cyfluthrin 0.0002, alone or mixed; 45 minutes after spraying
Description: as §4, §5, §6
as §7, with “each) […]” for “each)”, “nicofluprole,” for “broflanilide,”, “cyfluthrin,” for “permethrin,”, “45” for “420”

[6] = test system: German cockroaches (Blattella germanica); assay: Test Example 7: control test against German cockroaches, spray in chamber; details: adult German cockroaches; 1.5 mL sprayed; concentration [%]: isocycloseram 0.05, imiprothrin 0.01, cypermethrin 0.01, alone or mixed; 120 minutes after spraying
Description: as §1, §2, §3

[7] = test system: German cockroaches (Blattella germanica); assay: Test Example 2: control test against German cockroaches, spray in chamber; details: adult German cockroaches; 1.5 mL sprayed; concentration [%]: nicofluprole 0.01, imiprothrin 0.01, cypermethrin 0.01, alone or mixed; 120 minutes after spraying
Description: as §1, §2, §3

[8] = test system: German cockroaches (Blattella germanica); assay: Test Example 4: control test against German cockroaches, spray in chamber; details: adult German cockroaches; 1.5 mL sprayed; concentration [%]: nicofluprole 0.01, imiprothrin 0.01, deltamethrin 0.0002, alone or mixed; 45 minutes after spraying
Description: as §1, §2, §3

[9] = test system: German cockroaches (Blattella germanica); assay: Test Example 8: control test against German cockroaches, spray in chamber; details: adult German cockroaches; 1.5 mL sprayed; concentration [%]: nicofluprole 0.01, imiprothrin 0.01, phenothrin 0.1, alone or mixed; 45 minutes after spraying
Description: as §1, §2, §3

## CC1(C)[C@H](C(=O)O[C@H](C#N)c2cccc(Oc3ccccc3)c2)[C@@H]1/C=C(\Cl)C(F)(F)F (racemic) [Lambda-cyhalothrin, lambda-cyhalothrin]
[1]
  Moribund and mortal rates [%] after 60 minutes: 45%

## CN(C(=O)c1ccccc1)c1cccc(C(=O)Nc2c(Br)cc(C(F)(C(F)(F)F)C(F)(F)F)cc2C(F)(F)F)c1F [Broflanilide, broflanilide]
[2]
  Moribund and mortal rates [%] after 420 minutes: 70%
[3]
  Moribund and mortal rates [%] after 120 minutes: 5%
[4]
  Moribund and mortal rates [%] after 420 minutes: 70%

## CC1(C)C(C=C(Cl)Cl)C1C(=O)OC(C#N)c1ccc(F)c(Oc2ccccc2)c1 (centres unmarked) [Cyfluthrin, cyfluthrin]
[4]
  Moribund and mortal rates [%] after 420 minutes: 0%
[5]
  Moribund and mortal rates [%] after 45 minutes: 0%

## CC1(C)C(C=C(Cl)Cl)C1C(=O)OC(C#N)c1cccc(Oc2ccccc2)c1 (centres unmarked) [Cypermethrin, cypermethrin]
[6]
  Moribund and mortal rates [%] after 120 minutes: 50%
[3]
  Moribund and mortal rates [%] after 120 minutes: 45%
[7]
  Moribund and mortal rates [%] after 120 minutes: 15%

## CC1(C)[C@H](C(=O)O[C@H](C#N)c2cccc(Oc3ccccc3)c2)[C@@H]1C=C(Br)Br [Deltamethrin, deltamethrin]
[8]
  Moribund and mortal rates [%] after 45 minutes: 0%

## CC(C)=CC1C(C(=O)OCc2cccc(Oc3ccccc3)c2)C1(C)C (centres unmarked) [Phenothrin, phenothrin]
[9]
  Moribund and mortal rates [%] after 45 minutes: 5%

Source: US20240373851A1, “PEST CONTROL COMPOSITION AND PEST CONTROL METHOD” (SUMITOMO CHEMICAL COMPANY, LIMITED, priority 2021, published 2024)
